# Measurements from patent publication US12077503B2, “Substituted cyclic amides and their use as herbicides” (FMC CORPORATION, priority 2015, dated 2024).
# Key:
# Format in all cases: in vivo
# [1] = test system: barnyardgrass (Echinochloa crus-galli); assay: Test G Pre-Emergence Protocol; details: Echinochloa crus-galli, pre-emergence, 312 h, evaluated after 13 days
# How it was run: (§1)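 Pots of seeds in standard soil were grown for one day in a glasshouse (24/16 °C day/night, 14 h light, 65% humidity), then sprayed with compound in acetone/water 50:50 with 0.5% Tween 20 at 15.625, 62.5 or 250 g/ha. Damage was scored after 13 days on a 0 (none) to 100 (total) scale.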
# corn (Zea mays) [2] = assay: Test G Pre-Emergence Protocol; details: Zea mays, pre-emergence, 312 h, evaluated after 13 days
# How it was run: as §1
# [3] = test system: giant foxtail (Setaria faberi); assay: Test G Pre-Emergence Protocol; details: Setaria faberi, pre-emergence, 312 h, evaluated after 13 days
# How it was run: as §1
# [4] = test system: ivy-leaved morning glory (Ipomoea hederacea); assay: Test G Pre-Emergence Protocol; details: Ipomoea, pre-emergence, 312 h, evaluated after 13 days
# How it was run: as §1
# [5] = test system: redroot pigweed (Amaranthus retroflexus); assay: Test G Pre-Emergence Protocol; details: Amaranthus retroflexus, pre-emergence, 312 h, evaluated after 13 days
# How it was run: as §1
# [6] = test system: velvetleaf (Abutilon theophrasti); assay: Test G Pre-Emergence Protocol; details: Abutilon theophrasti, pre-emergence, 312 h, evaluated after 13 days
# How it was run: as §1
# [7] = test system: barnyardgrass (Echinochloa crus-galli); assay: Test G Post-Emergence Protocol; details: Echinochloa crus-galli, post-emergence, 312 h
# How it was run: (§2)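 Post-emergence herbicidal damage, scored visually 0–100 at 13 days. Application at 15.625, 62.5 or 250 g/ha onto 8-day-old plants grown under glasshouse control.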
# corn (Zea mays) [8] = assay: Test G Post-Emergence Protocol; details: Zea mays, post-emergence, 312 h
# How it was run: as §2
# [9] = test system: giant foxtail (Setaria faberi); assay: Test G Post-Emergence Protocol; details: Setaria faberi, post-emergence, 312 h
# How it was run: as §2
# [10] = test system: ivy-leaved morning glory (Ipomoea hederacea); assay: Test G Post-Emergence Protocol; details: Ipomoea, post-emergence, 312 h
# How it was run: as §2
# [11] = test system: redroot pigweed (Amaranthus retroflexus); assay: Test G Post-Emergence Protocol; details: Amaranthus retroflexus, post-emergence, 312 h
# How it was run: as §2
# [12] = test system: velvetleaf (Abutilon theophrasti); assay: Test G Post-Emergence Protocol; details: Abutilon theophrasti, post-emergence, 312 h
# How it was run: as §2
smiles,measurement,setting,value
C=CCc1c(Cl)cccc1NC(=O)[C@H]1C(=O)N(C)C[C@H]1c1ccc(C(F)(F)F)cc1 (racemic) [Compound 1439],pest or weed control at 15.625 g/ha,"[1]; 15.625 g ai/ha, read-out: Barnyard grass damage rating (100=total damage to plant; 0=no damage to plant)",0%
same,pest or weed control at 62.5 g/ha,"[1]; 62.5 g ai/ha, 100=total damage to plant, 0=no damage to plant, read-out: plant damage rating, Barnyardgrass",0%
same,pest or weed control at 250 g/ha,"[1]; 250 g ai/ha, read-out: Barnyardgrass damage rating (100=total damage to plant; 0=no damage to plant)",40%
same,plant injury at 15.625 g/ha,"corn (Zea mays) [2]; 15.625 g ai/ha, read-out: Corn damage rating (100=total damage to plant; 0=no damage to plant)",0%
same,plant injury at 62.5 g/ha,"corn (Zea mays) [2]; 62.5 g ai/ha, 100=total damage to plant, 0=no damage to plant, read-out: plant damage rating, Corn",0%
same,plant injury at 250 g/ha,"corn (Zea mays) [2]; 250 g ai/ha, read-out: Corn damage rating (100=total damage to plant; 0=no damage to plant)",0%
same,pest or weed control at 15.625 g/ha,"[3]; 15.625 g ai/ha, read-out: Foxtail, Giant damage rating (100=total damage to plant; 0=no damage to plant)",0%
same,pest or weed control at 62.5 g/ha,"[3]; 62.5 g ai/ha, 100=total damage to plant, 0=no damage to plant, read-out: plant damage rating, Foxtail, Giant",0%
same,pest or weed control at 250 g/ha,"[3]; 250 g ai/ha, read-out: Foxtail, Giant damage rating (100=total damage to plant; 0=no damage to plant)",50%
same,pest or weed control at 15.625 g/ha,"[4]; 15.625 g ai/ha, read-out: Morning-glory, Ivy-leaved damage rating (100=total damage to plant; 0=no damage to plant)",0%
same,pest or weed control at 62.5 g/ha,"[4]; 62.5 g ai/ha, 100=total damage to plant, 0=no damage to plant, read-out: plant damage rating, Morningglory, Ivy-leaved",0%
same,pest or weed control at 250 g/ha,"[4]; 250 g ai/ha, read-out: Morningglory, Ivy-leaved damage rating (100=total damage to plant; 0=no damage to plant)",0%
same,pest or weed control at 15.625 g/ha,"[5]; 15.625 g ai/ha, read-out: Pigweed, Redroot damage rating (100=total damage to plant; 0=no damage to plant)",0%
same,pest or weed control at 62.5 g/ha,"[5]; 62.5 g ai/ha, 100=total damage to plant, 0=no damage to plant, read-out: plant damage rating, Pigweed, Redroot",0%
same,pest or weed control at 250 g/ha,"[5]; 250 g ai/ha, read-out: Pigweed, Redroot damage rating (100=total damage to plant; 0=no damage to plant)",0%
same,pest or weed control at 15.625 g/ha,"[6]; 15.625 g ai/ha, read-out: Velvetleaf damage rating (100=total damage to plant; 0=no damage to plant)",0%
same,pest or weed control at 62.5 g/ha,"[6]; 62.5 g ai/ha, 100=total damage to plant, 0=no damage to plant, read-out: plant damage rating, Velvetleaf",0%
same,pest or weed control at 250 g/ha,"[6]; 250 g ai/ha, read-out: Velvetleaf damage rating (100=total damage to plant; 0=no damage to plant)",0%
same,pest or weed control at 15.625 g/ha,"[7]; 15.625 g ai/ha, evaluated after 13 days (100=total damage to plant; 0=no damage to plant), read-out: Barnyardgrass damage rating",0%
same,pest or weed control at 62.5 g/ha,"[7]; 62.5 g ai/ha, evaluated after 13 days, read-out: Barnyardgrass damage rating (100=total damage to plant; 0=no damage to plant)",0%
same,pest or weed control at 250 g/ha,"[7]; 250 g ai/ha, evaluated after 13 days, read-out: damage to plant, Barnyardgrass (100=total damage to plant; 0=no damage to plant)",10%
same,plant injury at 15.625 g/ha,"corn (Zea mays) [8]; 15.625 g ai/ha, evaluated after 13 days (100=total damage to plant; 0=no damage to plant), read-out: Corn damage rating",10%
same,plant injury at 62.5 g/ha,"corn (Zea mays) [8]; 62.5 g ai/ha, evaluated after 13 days, read-out: Corn damage rating (100=total damage to plant; 0=no damage to plant)",10%
same,plant injury at 250 g/ha,"corn (Zea mays) [8]; 250 g ai/ha, evaluated after 13 days, read-out: damage to plant, Corn (100=total damage to plant; 0=no damage to plant)",10%
same,pest or weed control at 15.625 g/ha,"[9]; 15.625 g ai/ha, evaluated after 13 days (100=total damage to plant; 0=no damage to plant), read-out: Foxtail, Giant damage rating",0%
same,pest or weed control at 62.5 g/ha,"[9]; 62.5 g ai/ha, evaluated after 13 days, read-out: Foxtail, Giant damage rating (100=total damage to plant; 0=no damage to plant)",20%
same,pest or weed control at 250 g/ha,"[9]; 250 g ai/ha, evaluated after 13 days, read-out: damage to plant, Foxtail, Giant (100=total damage to plant; 0=no damage to plant)",60%
same,pest or weed control at 15.625 g/ha,"[10]; 15.625 g ai/ha, evaluated after 13 days (100=total damage to plant; 0=no damage to plant), read-out: Morningglory, Ivy-leaved damage rating",0%
same,pest or weed control at 62.5 g/ha,"[10]; 62.5 g ai/ha, evaluated after 13 days, read-out: Morningglory, Ivy-leaved damage rating (100=total damage to plant; 0=no damage to plant)",0%
same,pest or weed control at 250 g/ha,"[10]; 250 g ai/ha, evaluated after 13 days, read-out: damage to plant, Morningglory, Ivy-leaved (100=total damage to plant; 0=no damage to plant)",0%
same,pest or weed control at 15.625 g/ha,"[11]; 15.625 g ai/ha, evaluated after 13 days (100=total damage to plant; 0=no damage to plant), read-out: Pigweed, Redroot damage rating",0%
same,pest or weed control at 62.5 g/ha,"[11]; 62.5 g ai/ha, evaluated after 13 days, read-out: Pigweed, Redroot damage rating (100=total damage to plant; 0=no damage to plant)",0%
same,pest or weed control at 250 g/ha,"[11]; 250 g ai/ha, evaluated after 13 days, read-out: damage to plant, Pigweed, Redroot (100=total damage to plant; 0=no damage to plant)",40%
same,pest or weed control at 15.625 g/ha,"[12]; 15.625 g ai/ha, evaluated after 13 days (100=total damage to plant; 0=no damage to plant), read-out: Velvetleaf damage rating",0%
same,pest or weed control at 62.5 g/ha,"[12]; 62.5 g ai/ha, evaluated after 13 days, read-out: Velvetleaf damage rating (100=total damage to plant; 0=no damage to plant)",0%
same,pest or weed control at 250 g/ha,"[12]; 250 g ai/ha, evaluated after 13 days, read-out: damage to plant, Velvetleaf (100=total damage to plant; 0=no damage to plant)",0%
